Assays:
Tyk2 kinase domain (DH1) = Tyk2 kinase domain (DH1) (Homo sapiens (Human), UniProt P29597); assay: Tyk2 Radioactive Kinase Assay; type: biochemical; conditions: compound at 10 μM, ATP 10 μM; for inhibition at 10 µM: read-out: Tyk2 JH1% Inhibition @ 10 μM
Summary of the method: (§1)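 Read-out is percent inhibition from a radioactive kinase reaction, measured with compound at 10 μM.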

[1] = target: human TYK2 (JH2domain-pseudokinase) (Homo sapiens (Human), UniProt P29597); assay: TYK2 JH2 Domain Binding Assay (KINOMEscan)
Summary of the method: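 Kds, run in duplicate, came from Hill fits (slope fixed at −1) of an 11-point 3-fold dilution series starting at 30,000 nM. Bead-retained TYK2 JH2 (aa G556–D888)–NFkB DBD fusion, DNA-tagged and expressed in HEK293 cells, was read by qPCR after 1 h room-temperature binding in 0.9% DMSO.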

JAK2 kinase domain (JH1) = JAK2 kinase domain (JH1) (Homo sapiens (Human), UniProt O60674); assay: JAK2 Radioactive Kinase Assay; type: biochemical; conditions: compound at 10 μM, ATP 10 μM; for inhibition at 10 µM: read-out: JAK2 JH1% Inhibition @ 10 μM
Summary of the method: as §1

human TYK2 (JH2domain-pseudokinase), sequence (P29597 556-888): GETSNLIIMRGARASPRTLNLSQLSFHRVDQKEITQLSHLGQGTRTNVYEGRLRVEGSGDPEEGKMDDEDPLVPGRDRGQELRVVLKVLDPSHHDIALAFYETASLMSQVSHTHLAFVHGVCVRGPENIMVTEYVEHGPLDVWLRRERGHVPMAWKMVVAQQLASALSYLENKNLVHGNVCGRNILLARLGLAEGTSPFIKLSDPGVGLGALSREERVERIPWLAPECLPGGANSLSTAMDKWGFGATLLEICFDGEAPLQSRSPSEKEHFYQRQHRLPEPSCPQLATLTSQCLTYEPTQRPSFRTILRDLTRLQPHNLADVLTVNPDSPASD
JAK2 kinase domain (JH1), sequence (O60674 849-1124): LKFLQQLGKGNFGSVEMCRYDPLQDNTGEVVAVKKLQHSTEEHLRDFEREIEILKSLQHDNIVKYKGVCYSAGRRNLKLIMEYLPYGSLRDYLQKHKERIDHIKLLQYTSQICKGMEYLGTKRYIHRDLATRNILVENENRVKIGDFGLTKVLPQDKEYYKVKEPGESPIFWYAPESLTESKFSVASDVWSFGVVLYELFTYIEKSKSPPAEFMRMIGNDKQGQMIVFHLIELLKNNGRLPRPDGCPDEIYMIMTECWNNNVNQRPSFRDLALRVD
Tyk2 kinase domain (DH1), sequence (P29597 897-1176): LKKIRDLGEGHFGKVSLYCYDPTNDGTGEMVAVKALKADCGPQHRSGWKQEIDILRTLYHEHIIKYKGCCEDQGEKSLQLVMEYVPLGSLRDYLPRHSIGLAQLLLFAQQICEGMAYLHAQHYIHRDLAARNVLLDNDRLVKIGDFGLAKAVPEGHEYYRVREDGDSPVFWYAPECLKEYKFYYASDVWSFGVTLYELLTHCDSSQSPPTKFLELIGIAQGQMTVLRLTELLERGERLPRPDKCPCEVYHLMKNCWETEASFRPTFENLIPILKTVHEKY

| inhibition at 10 µM (Tyk2 kinase domain (DH1)) | Kd [1] | inhibition at 10 µM (JAK2 kinase domain (JH1)) | SMILES | Tyk2 JH1% Inhibition @ 10 μM (Tyk2 kinase domain (DH1)) | JAK2 JH1% Inhibition @ 10 μM (JAK2 kinase domain (JH1)) |
| --- | --- | --- | --- | --- | --- |
| < 50% | 0.2 to 1 nM | < 50% | CNc1cc(Nc2cccn([C@H]3CC[C@H](OC)CC3)c2=O)nc2c(C(=O)N[C@H]3COC[C@H]3O)cnn12 [I-746] |  |  |
| < 50% | < 0.2 nM | < 50% | CNc1cc(Nc2cccc3ocnc23)nc2c(C(=O)NCC3(CO)CC3)cnn12 [I-749] |  |  |
| < 50% | 0.2 to 1 nM | < 50% | CNc1cc(Nc2cccn([C@@H]3CCCOC3)c2=O)nc2c(C(=O)N[C@@H]3CC[C@@H]3O)cnn12 [I-752] |  |  |
| < 50% | 0.2 to 1 nM | < 50% | CNc1cc(Nc2cccn([C@H]3CCCOC3)c2=O)nc2c(C(=O)N[C@H]3COC[C@H]3O)cnn12 [I-753] |  |  |
| < 50% | < 0.2 nM | < 50% | CNc1cc(Nc2cccn([C@@H]3CCCOC3)c2=O)nc2c(C(=O)N[C@H]3COC[C@H]3O)cnn12 [I-754] |  |  |
| < 50% | < 0.2 nM | < 50% | CNc1cc(Nc2cccc3ocnc23)nc2c(C(=O)N[C@H]3COC[C@H]3O)cnn12 [I-755] |  |  |
| < 50% | < 0.2 nM | < 50% | CNc1cc(Nc2cccc(N3CC(O)C3)n2)nc2c(C(=O)N[C@@H]3C[C@@H]3F)cnn12 [I-757] |  |  |
| < 50% | 0.2 to 1 nM | < 50% | CNc1cc(Nc2cccc(N3CC4(CCO4)C3)n2)nc2c(C(=O)N[C@H]3CC[C@H]3O)cnn12 [I-758] |  |  |
| < 50% | < 0.2 nM | < 50% | CNc1cc(Nc2cccn([C@H]3CCC[C@H](O)C3)c2=O)nc2c(C(=O)NC3CC3)cnn12 [I-760] |  |  |
| < 50% | 0.2 to 1 nM | < 50% | CNc1cc(Nc2cccn(C3CCN(C)CC3(F)F)c2=O)nc2c(C(=O)NC3CC3)cnn12 (stereo not drawn) [I-761] |  |  |
| < 50% | < 0.2 nM | < 50% | CNc1cc(Nc2cccn(C3CC4(COC4)C3)c2=O)nc2c(C(=O)N[C@H]3CC[C@H]3O)cnn12 [I-763] |  |  |
| < 50% | < 0.2 nM | < 50% | CNc1cc(Nc2cccn(-c3ccc(C)nc3)c2=O)nc2c(C(=O)NC3CC3)cnn12 [I-765, N-cyclopropyl-5-((6′-methyl-2-oxo-2H-[1,3′-bipyridin]-3-yl)amino)-7-(methylamino)pyrazolo[1,5-a]pyrimidine-3-carboxamide] |  |  |
| < 50% | < 0.2 nM | < 50% | CNc1cc(Nc2cccn(-c3ccc(C)nc3)c2=O)nc2c(C(=O)N[C@@H]3C[C@@H]3F)cnn12 [I-766] |  |  |

Second part, the compound before the results:

| SMILES | inhibition at 10 µM (Tyk2 kinase domain (DH1)) | Kd [1] | inhibition at 10 µM (JAK2 kinase domain (JH1)) | Tyk2 JH1% Inhibition @ 10 μM (Tyk2 kinase domain (DH1)) | JAK2 JH1% Inhibition @ 10 μM (JAK2 kinase domain (JH1)) |
| --- | --- | --- | --- | --- | --- |
| CNc1cc(Nc2cccn([C@H]3CCCOC3)c2=O)nc2c(C(=O)N[C@@H]3CC[C@@H]3O)cnn12 [I-696] | < 50% | < 0.2 nM | < 50% |  |  |
| CNc1cc(Nc2cccn([C@H]3CCCOC3)c2=O)nc2c(C(=O)N[C@H]3CC[C@@H]3O)cnn12 [I-697] | < 50% | < 0.2 nM | < 50% |  |  |
| CNc1cc(Nc2cccn([C@@H]3CCCOC3)c2=O)nc2c(C(=O)N[C@H]3CC[C@@H]3O)cnn12 [I-698] | < 50% | < 0.2 nM | < 50% |  |  |
| CNc1cc(Nc2cccn([C@H]3CCCOC3)c2=O)nc2c(C(=O)NCC3(CO)CC3)cnn12 [I-699] | < 50% | < 0.2 nM | < 50% |  |  |
| CNc1cc(Nc2cccn([C@@H]3CCCOC3)c2=O)nc2c(C(=O)NCC3(CO)CC3)cnn12 [I-700] | < 50% | 0.2 to 1 nM | < 50% |  |  |
| CNc1cc(Nc2cccn([C@@H]3CCCOC3)c2=O)nc2c(C(=O)N[C@H]3CCC[C@H](O)C3)cnn12 [I-703] | < 50% | < 0.2 nM | < 50% |  |  |
| CNc1cc(Nc2cccn(-c3ccccn3)c2=O)nc2c(C(=O)N[C@H]3CC[C@@H]3O)cnn12 [I-705] | < 50% | < 0.2 nM | < 50% |  |  |
| CNc1cc(Nc2cccn(-c3nc(C)co3)c2=O)nc2c(C(=O)N[C@H]3CC[C@H]3O)cnn12 [I-707] | < 50% | < 0.2 nM | < 50% |  |  |
| CNc1cc(Nc2cccc(N3CCC34COC4)n2)nc2c(C(=O)NC3CC3)cnn12 [I-708] | < 50% | < 0.2 nM | < 50% |  |  |
| CNc1cc(Nc2cc(Cl)cn(C3CCOCC3)c2=O)nc2c(C(=O)N[C@@H]3CC[C@@H]3O)cnn12 [I-713] | < 50% | < 0.2 nM | < 50% |  |  |
| CNc1cc(Nc2cccn(-c3cnco3)c2=O)nc2c(C(=O)NC3CC3)cnn12 [I-714] | < 50% | < 0.2 nM | < 50% |  |  |
| CNc1cc(Nc2cccn(-c3cnc(C)o3)c2=O)nc2c(C(=O)NC3CC3)cnn12 [I-717] | < 50% | < 0.2 nM | < 50% |  |  |
| CNc1cc(Nc2cccn(-c3cnn(C)c3F)c2=O)nc2c(C(=O)N[C@H]3C[C@H]3F)cnn12 [I-719] | < 50% | < 0.2 nM | < 50% |  |  |
| CNc1cc(Nc2cccc(N3CCC4(CCCO4)CC3)n2)nc2c(C(=O)N[C@@H]3CC[C@@H]3O)cnn12 [I-720] |  | 1 to 10 nM |  | A (percent inhibition at 10 μM lower than 50) | A (percent inhibition at 10 μM lower than 50) |
| CNc1cc(Nc2cccc(N3CCC4(CCCO4)CC3)n2)nc2c(C(=O)N[C@H]3CC[C@H]3O)cnn12 [I-721] | < 50% | < 0.2 nM | < 50% |  |  |
| CNc1cc(Nc2cccn([C@H]3CC[C@](C)(OC)CC3)c2=O)nc2c(C(=O)N[C@H]3CC[C@H]3O)cnn12 [I-723, N-((1R,2S)-2-hydroxycyclobutyl)-5-((1-((1R,4R)-4-methoxy-4-methylcyclohexyl)-2-oxo-1,2-dihydropyridin-3-yl)amino)-7-(methylamino)pyrazolo[1,5-a]pyrimidine-3-carboxamide] | < 50% | 0.2 to 1 nM | < 50% |  |  |

| SMILES | inhibition at 10 µM (Tyk2 kinase domain (DH1)) | Kd [1] | inhibition at 10 µM (JAK2 kinase domain (JH1)) | Tyk2 JH1% Inhibition @ 10 μM (Tyk2 kinase domain (DH1)) | JAK2 JH1% Inhibition @ 10 μM (JAK2 kinase domain (JH1)) |
| --- | --- | --- | --- | --- | --- |
| CNc1cc(Nc2cccn([C@@H]3CCCOC3)c2=O)nc2c(C(=O)N[C@@H]3CC[C@H]3O)cnn12 [I-727] | < 50% | < 0.2 nM | < 50% |  |  |
| CNc1cc(Nc2cccn([C@H]3CCCOC3)c2=O)nc2c(C(=O)N[C@H]3CC[C@H](O)C3)cnn12 [I-728] |  | < 0.2 nM |  | A (percent inhibition at 10 μM lower than 50) | A (percent inhibition at 10 μM lower than 50) |
| CNc1cc(Nc2cccn([C@H]3CCCOC3)c2=O)nc2c(C(=O)N[C@@H]3CC[C@@H](O)C3)cnn12 [I-729] | < 50% | < 0.2 nM | < 50% |  |  |
| CNc1cc(Nc2cccn(-c3ccccn3)c2=O)nc2c(C(=O)NC[C@H](C)CO)cnn12 [I-730] | < 50% | < 0.2 nM | < 50% |  |  |
| CNc1cc(Nc2cccn(-c3ccccn3)c2=O)nc2c(C(=O)NC[C@@H](C)CO)cnn12 [I-731] | < 50% | 0.2 to 1 nM | < 50% |  |  |
| CNc1cc(Nc2cccn([C@@H]3CCCOC3)c2=O)nc2c(C(=O)N[C@H]3CCC[C@H](O)C3)cnn12 [I-734] |  | 0.2 to 1 nM |  | A (percent inhibition at 10 μM lower than 50) | A (percent inhibition at 10 μM lower than 50) |
| CNc1cc(Nc2cccn([C@@H]3CCCOC3)c2=O)nc2c(C(=O)N[C@@H]3CCC[C@@H](O)C3)cnn12 [I-735] | < 50% | < 0.2 nM | < 50% |  |  |
| CNc1cc(Nc2cccn(-c3nc(C)co3)c2=O)nc2c(C(=O)NC[C@H](C)CO)cnn12 [I-736] | < 50% | < 0.2 nM | < 50% |  |  |
| CNc1cc(Nc2cccn(-c3nc(C)co3)c2=O)nc2c(C(=O)NC[C@@H](C)CO)cnn12 [I-737] | < 50% | < 0.2 nM | < 50% |  |  |
| CNc1cc(Nc2cccn([C@@H]3CCCOC3)c2=O)nc2c(C(=O)N[C@H]3CC[C@H](O)C3)cnn12 [I-738] |  | 0.2 to 1 nM |  | A (percent inhibition at 10 μM lower than 50) | A (percent inhibition at 10 μM lower than 50) |
| CNc1cc(Nc2cccn([C@@H]3CCCOC3)c2=O)nc2c(C(=O)N[C@@H]3CC[C@@H](O)C3)cnn12 [I-739] | < 50% | 0.2 to 1 nM | < 50% |  |  |
| CNc1cc(Nc2cc(Cl)cn(C3CCCOC3)c2=O)nc2c(C(=O)N[C@H]3[C@@H]4COC[C@@H]43)cnn12 (stereo partly drawn) [I-741, N-((1R,5S,6r)-3-oxabicyclo[3.1.0]hexan-6-yl)-5-((5-chloro-2-oxo-1-(tetrahydro-2H-pyran-3-yl)-1,2-dihydropyridin-3-yl)amino)-7-(methylamino)pyrazolo[1,5-a]pyrimidine-3-carboxamide] | < 50% | < 0.2 nM | < 50% |  |  |
| CNc1cc(Nc2cccn([C@@H]3CC[C@H]3O)c2=O)nc2c(C(=O)NC3CC3)cnn12 [I-742] | < 50% | < 0.2 nM | < 50% |  |  |
| CNc1cc(Nc2cccn(-c3ccccn3)c2=O)nc2c(C(=O)N[C@@H]3CC[C@@H]3O)cnn12 [I-743] | < 50% | < 0.2 nM | < 50% |  |  |
| CNc1cc(Nc2cccn([C@H]3CCCOC3)c2=O)nc2c(C(=O)N[C@H]3CC[C@H]3O)cnn12 [I-745] | < 50% | < 0.2 nM | < 50% |  |  |
